# From patent publication US11566057B2, “Long-acting co-agonists of the glucagon and GLP-1 receptors” (Merck Sharp & Dohme Corp., priority 2017, dated 2023)
# Like-named read-outs stand apart in the source and are kept apart here. Numbered stars: 1 amine (or outer) side, 2 acyl side, 3 side chain; on linkers, the order of the positions; unused ones are H or OH. Square brackets hold non-standard residues; d marks the D form. Side chains are listed from the residue outwards. Peptide text beside a SMILES is read from it. * marks the point of attachment. C20 diacid = O=C(O)CCCCCCCCCCCCCCCCCCC(=O)*; Phe(4-CH2NH2) = NCc1ccc(C[C@H](N)C(=O)O)cc1; C18 diacid = O=C(O)CCCCCCCCCCCCCCCCC(=O)*; γGlu = O=C(O)[C@H](CCC(=O)[*:2])N[*:1]; Met(O2) = CS(=O)(=O)CC[C@H](N)C(=O)O; αMeS = C[C@](N)(CO)C(=O)O; AEEA = NCCOCCOCC(=O)O; Aib = CC(C)(N)C(=O)O
# Columns and labels:
# human GLP1R = molecular target: T1, human GLP1R (Homo sapiens, UniProt P43220); experiment: cAMP activity assay at the GLP-1 receptor (GLP1R); assay type: cell-based
# T1 construct: expressed in transfected cells; growth medium holds Blasticidin and Hygromycin
# How it was run: (§1)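 Peptides serially diluted from DMSO (10 points) and added to frozen-stock cells bearing human GLP1R (10,000 cells/well) or GCGR (30,000 cells/well), 1 h at RT, dark. EC50 by four-parameter logistic fit of HitHunter cAMPXS luminescence, read following overnight RT incubation.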
# human GCGR = molecular target: T2, human GCGR (Homo sapiens, UniProt P47871); experiment: cAMP activity assay at the Glucagon receptor (GCGR); assay type: cell-based; details: for hGCGR/hGLP1R (hTone): ratio of GCGR EC50 to GLP1R EC50
# T2 construct: expressed in transfected cells; growth medium holds Blasticidin and Hygromycin
# How it was run: as §1
# [1] = cells expressing human GLP1R, cAMP production, buffer with or without 20% human serum (not stated which), read-out: GLP1R EC50 human
# [2] = summary statement: EC50 at each of the glucagon and GLP-1 receptors, read-out: EC50 at the GLP-1 receptor
# [3] = summary statement: EC50 at each of the glucagon and GLP-1 receptors, read-out: EC50 at the glucagon receptor
# [4] = cells expressing human GCGR, cAMP production, buffer with or without 20% human serum (not stated which), read-out: GCGR EC50 human
# T2 sequence (P47871 26-477): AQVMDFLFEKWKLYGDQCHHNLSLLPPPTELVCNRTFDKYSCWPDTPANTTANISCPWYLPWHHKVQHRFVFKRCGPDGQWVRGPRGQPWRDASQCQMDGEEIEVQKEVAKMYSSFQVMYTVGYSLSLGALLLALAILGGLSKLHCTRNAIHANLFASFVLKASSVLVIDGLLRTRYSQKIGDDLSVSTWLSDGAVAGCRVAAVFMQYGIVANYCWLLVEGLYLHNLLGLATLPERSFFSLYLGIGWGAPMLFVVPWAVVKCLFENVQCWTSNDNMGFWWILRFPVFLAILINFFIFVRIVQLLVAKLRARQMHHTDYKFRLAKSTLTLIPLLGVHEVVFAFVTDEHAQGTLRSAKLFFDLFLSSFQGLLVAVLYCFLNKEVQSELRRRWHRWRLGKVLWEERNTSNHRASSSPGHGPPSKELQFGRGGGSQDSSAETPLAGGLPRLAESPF
# T1 sequence (P43220 24-463): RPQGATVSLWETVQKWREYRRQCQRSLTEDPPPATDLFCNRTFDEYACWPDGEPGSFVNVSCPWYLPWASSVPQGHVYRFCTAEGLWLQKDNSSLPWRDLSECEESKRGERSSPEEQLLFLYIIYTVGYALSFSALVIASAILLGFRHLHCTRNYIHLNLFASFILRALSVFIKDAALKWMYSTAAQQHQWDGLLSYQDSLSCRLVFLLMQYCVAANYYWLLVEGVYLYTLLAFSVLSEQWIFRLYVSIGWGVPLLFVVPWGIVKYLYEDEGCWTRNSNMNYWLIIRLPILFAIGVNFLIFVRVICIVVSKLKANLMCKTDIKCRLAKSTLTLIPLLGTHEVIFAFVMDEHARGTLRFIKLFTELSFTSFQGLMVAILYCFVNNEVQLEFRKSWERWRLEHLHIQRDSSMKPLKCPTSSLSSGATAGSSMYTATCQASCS
Compound,EC50 (human GLP1R; [1]),EC50 (human GLP1R; [2]),hGCGR/hGLP1R (hTone) (human GCGR),EC50 (human GCGR; [3]),EC50 (human GCGR; [4])
CC(C)C[C@H](NC(=O)[C@H](Cc1ccc(O)cc1)NC(=O)[C@H](CCCCN)NC(=O)[C@H](CO)NC(=O)[C@H](Cc1ccc(O)cc1)NC(=O)[C@H](CC(=O)O)NC(=O)[C@H](CO)NC(=O)[C@@H](NC(=O)[C@H](Cc1ccccc1)NC(=O)[C@@H](NC(=O)CNC(=O)[C@H](CCC(N)=O)NC(=O)C(C)(C)NC(=O)[C@@H](N)Cc1c[nH]cn1)[C@@H](C)O)[C@@H](C)O)C(=O)N[C@@H](CC(=O)O)C(=O)N[C@@H](C)C(=O)N[C@@H](CCCNC(=N)N)C(=O)N[C@@H](C)C(=O)N[C@@H](C)C(=O)N[C@@H](CCCCNC(=O)COCCOCCNC(=O)CC[C@H](NC(=O)CCCCCCCCCCCCCCCCC(=O)O)C(=O)O)C(=O)N[C@@H](CC(=O)O)C(=O)N[C@@H](Cc1ccccc1)C(=O)N[C@H](C(=O)N[C@@H](CCC(N)=O)C(=O)N[C@@H](Cc1c[nH]c2ccccc12)C(=O)N[C@@H](CC(C)C)C(=O)N[C@@H](CCS(C)(=O)=O)C(=O)N[C@@H](CC(=O)O)C(=O)N[C@H](C(N)=O)[C@@H](C)O)C(C)C [TP626] (H-H[Aib]QGTFTSDYSKYLDARAAK([AEEA-γGlu-C18 diacid])DFVQWL[Met(O2)]DT-NH2; N-terminus assumed),,< 5 nM,0.6,< 5 nM,
CC(C)C[C@H](NC(=O)[C@H](Cc1ccc(O)cc1)NC(=O)[C@H](CCCCN)NC(=O)[C@H](CO)NC(=O)[C@H](Cc1ccc(O)cc1)NC(=O)[C@H](CC(=O)O)NC(=O)[C@H](CO)NC(=O)[C@@H](NC(=O)[C@H](Cc1ccccc1)NC(=O)[C@@H](NC(=O)CNC(=O)[C@H](CCC(N)=O)NC(=O)C(C)(C)NC(=O)[C@@H](N)Cc1c[nH]cn1)[C@@H](C)O)[C@@H](C)O)C(=O)N[C@@H](CC(=O)O)C(=O)N[C@@H](CO)C(=O)N[C@@H](CCCNC(=N)N)C(=O)N[C@@H](C)C(=O)N[C@@H](C)C(=O)N[C@@H](CCCCNC(=O)COCCOCCNC(=O)COCCOCCNC(=O)CC[C@H](NC(=O)CCCCCCCCCCCCCCCCCCC(=O)O)C(=O)O)C(=O)N[C@@H](CC(=O)O)C(=O)N[C@@H](Cc1ccccc1)C(=O)N[C@H](C(=O)N[C@@H](CCC(N)=O)C(=O)N[C@@H](Cc1c[nH]c2ccccc12)C(=O)N[C@@H](CC(C)C)C(=O)N[C@@H](CCS(C)(=O)=O)C(=O)N[C@@H](CC(=O)O)C(=O)N[C@H](C(N)=O)[C@@H](C)O)C(C)C [TP577] (H-H[Aib]QGTFTSDYSKYLDSRAAK([AEEA-AEEA-γGlu-C20 diacid])DFVQWL[Met(O2)]DT-NH2; N-terminus assumed),,< 5 nM,2.7,< 5 nM,4.54 nM
CC(C)C[C@H](NC(=O)[C@H](Cc1c[nH]c2ccccc12)NC(=O)[C@H](CCC(N)=O)NC(=O)[C@@H](NC(=O)[C@H](Cc1ccccc1)NC(=O)[C@H](CC(=O)O)NC(=O)[C@H](CCCCNC(=O)COCCOCCNC(=O)COCCOCCNC(=O)CC[C@H](NC(=O)CCCCCCCCCCCCCCCCCCC(=O)O)C(=O)O)NC(=O)[C@H](C)NC(=O)[C@H](C)NC(=O)[C@H](CCCNC(=N)N)NC(=O)C(C)(C)NC(=O)[C@H](CC(=O)O)NC(=O)[C@H](CC(C)C)NC(=O)[C@H](Cc1ccc(O)cc1)NC(=O)[C@H](CCCCN)NC(=O)[C@H](CO)NC(=O)[C@H](Cc1ccc(O)cc1)NC(=O)[C@H](CC(=O)O)NC(=O)[C@H](CO)NC(=O)[C@@H](NC(=O)[C@H](Cc1ccccc1)NC(=O)[C@@H](NC(=O)CNC(=O)[C@H](CCC(N)=O)NC(=O)[C@](C)(CO)NC(=O)[C@@H](N)Cc1c[nH]cn1)[C@@H](C)O)[C@@H](C)O)C(C)C)C(=O)N[C@@H](CCS(C)(=O)=O)C(=O)N[C@@H](CC(=O)O)C(=O)N[C@H](C(N)=O)[C@@H](C)O [TP592] (H-H[αMeS]QGTFTSDYSKYLD[Aib]RAAK([AEEA-AEEA-γGlu-C20 diacid])DFVQWL[Met(O2)]DT-NH2; N-terminus assumed),,< 5 nM,1.4,< 5 nM,3.39 nM
CC(C)C[C@H](NC(=O)[C@H](CCCCN)NC(=O)[C@H](CCCCN)NC(=O)[C@H](CO)NC(=O)[C@H](Cc1ccc(O)cc1)NC(=O)[C@H](CCC(=O)O)NC(=O)[C@H](CO)NC(=O)[C@@H](NC(=O)[C@H](Cc1ccccc1)NC(=O)[C@@H](NC(=O)CNC(=O)[C@H](CCC(N)=O)NC(=O)C(C)(C)NC(=O)[C@@H](N)Cc1c[nH]cn1)[C@@H](C)O)[C@@H](C)O)C(=O)N[C@@H](CC(=O)O)C(=O)N[C@@H](C)C(=O)N[C@@H](CCCNC(=N)N)C(=O)N[C@@H](C)C(=O)N[C@@H](C)C(=O)N[C@@H](CCC(N)=O)C(=O)N[C@@H](CC(=O)O)C(=O)N[C@@H](Cc1ccccc1)C(=O)N[C@H](C(=O)N[C@@H](CCCCNC(=O)COCCOCCNC(=O)COCCOCCNC(=O)CC[C@H](NC(=O)CCCCCCCCCCCCCCCCC(=O)O)C(=O)O)C(=O)N[C@@H](Cc1c[nH]c2ccccc12)C(=O)N[C@@H](CC(C)C)C(=O)N[C@@H](CCS(C)(=O)=O)C(=O)N[C@@H](CC(=O)O)C(=O)N[C@H](C(N)=O)[C@@H](C)O)C(C)C [TP699] (H-H[Aib]QGTFTSEYSKKLDARAAQDFVK([AEEA-AEEA-γGlu-C18 diacid])WL[Met(O2)]DT-NH2),> 19.8 nM,,,,> 19.8 nM

# Now from value to compound:
EC50 (human GLP1R; [1]),EC50 (human GLP1R; [2]),hGCGR/hGLP1R (hTone) (human GCGR),EC50 (human GCGR; [3]),EC50 (human GCGR; [4]),Compound
0.45 nM,< 5 nM,2.4,< 5 nM,,CC(C)C[C@H](NC(=O)[C@H](Cc1ccc(O)cc1)NC(=O)[C@H](CCCCN)NC(=O)[C@H](CO)NC(=O)[C@H](Cc1ccc(O)cc1)NC(=O)[C@H](CC(=O)O)NC(=O)[C@H](CO)NC(=O)[C@@H](NC(=O)[C@H](Cc1ccccc1)NC(=O)[C@@H](NC(=O)CNC(=O)[C@H](CCC(N)=O)NC(=O)C(C)(C)NC(=O)[C@@H](N)Cc1c[nH]cn1)[C@@H](C)O)[C@@H](C)O)C(=O)N[C@@H](CCC(=O)O)C(=O)N[C@@H](C)C(=O)N[C@@H](CCCNC(=N)N)C(=O)N[C@@H](C)C(=O)N[C@@H](C)C(=O)N[C@@H](CCCCNC(=O)COCCOCCNC(=O)COCCOCCNC(=O)CC[C@H](NC(=O)CCCCCCCCCCCCCCCCC(=O)O)C(=O)O)C(=O)N[C@@H](CC(=O)O)C(=O)N[C@@H](Cc1ccccc1)C(=O)N[C@H](C(=O)N[C@@H](CCC(N)=O)C(=O)N[C@@H](Cc1c[nH]c2ccccc12)C(=O)N[C@@H](CC(C)C)C(=O)N[C@@H](CCS(C)(=O)=O)C(=O)N[C@@H](CC(=O)O)C(=O)N[C@H](C(N)=O)[C@@H](C)O)C(C)C [TP674] (H-H[Aib]QGTFTSDYSKYLEARAAK([AEEA-AEEA-γGlu-C18 diacid])DFVQWL[Met(O2)]DT-NH2; N-terminus assumed)
,< 5 nM,2.8,< 5 nM,,CC(C)C[C@H](NC(=O)[C@H](Cc1ccc(O)cc1)NC(=O)[C@H](CCCCN)NC(=O)[C@H](CO)NC(=O)[C@H](Cc1ccc(O)cc1)NC(=O)[C@H](CC(=O)O)NC(=O)[C@H](CO)NC(=O)[C@@H](NC(=O)[C@H](Cc1ccccc1)NC(=O)[C@@H](NC(=O)CNC(=O)[C@H](CCC(N)=O)NC(=O)C(C)(C)NC(=O)[C@@H](N)Cc1c[nH]cn1)[C@@H](C)O)[C@@H](C)O)C(=O)N[C@@H](CC(=O)O)C(=O)N[C@@H](C)C(=O)N[C@@H](CCCNC(=N)N)C(=O)N[C@@H](C)C(=O)N[C@@H](C)C(=O)N[C@@H](CCCCNC(=O)COCCOCCNC(=O)COCCOCCNC(=O)CC[C@H](NC(=O)CCCCCCCCCCCCCCCCC(=O)O)C(=O)O)C(=O)N[C@@H](CC(=O)O)C(=O)N[C@@H](Cc1ccccc1)C(=O)N[C@H](C(=O)N[C@@H](CCC(N)=O)C(=O)N[C@@H](Cc1c[nH]c2ccccc12)C(=O)N[C@@H](CC(C)C)C(=O)N[C@@H](CCS(C)(=O)=O)C(=O)N[C@@H](CC(=O)O)C(=O)N[C@H](C(=O)O)[C@@H](C)O)C(C)C [TP736] (H-H[Aib]QGTFTSDYSKYLDARAAK([AEEA-AEEA-γGlu-C18 diacid])DFVQWL[Met(O2)]DT-OH)
,< 5 nM,2.4,< 5 nM,1.09 nM,CC(C)C[C@H](NC(=O)[C@H](Cc1ccc(O)cc1)NC(=O)[C@H](CCCCN)NC(=O)[C@H](CO)NC(=O)[C@H](Cc1ccc(CNC(=O)COCCOCCNC(=O)COCCOCCNC(=O)CC[C@H](NC(=O)CCCCCCCCCCCCCCCCCCC(=O)O)C(=O)O)cc1)NC(=O)[C@H](CC(=O)O)NC(=O)[C@H](CO)NC(=O)[C@@H](NC(=O)[C@H](Cc1ccccc1)NC(=O)[C@@H](NC(=O)CNC(=O)[C@H](CCC(N)=O)NC(=O)C(C)(C)NC(=O)[C@@H](N)Cc1c[nH]cn1)[C@@H](C)O)[C@@H](C)O)C(=O)N[C@@H](CC(=O)O)C(=O)N[C@@H](C)C(=O)N[C@@H](CCCNC(=N)N)C(=O)N[C@@H](C)C(=O)N[C@@H](C)C(=O)N[C@@H](CCC(N)=O)C(=O)N[C@@H](CC(=O)O)C(=O)N[C@@H](Cc1ccccc1)C(=O)N[C@H](C(=O)N[C@@H](CCC(N)=O)C(=O)N[C@@H](Cc1c[nH]c2ccccc12)C(=O)N[C@@H](CC(C)C)C(=O)N[C@@H](CCS(C)(=O)=O)C(=O)N[C@@H](CC(=O)O)C(=O)N[C@H](C(N)=O)[C@@H](C)O)C(C)C [TP580] (H-H[Aib]QGTFTSD[Phe(4-CH2NH2)]([AEEA-AEEA-γGlu-C20 diacid])SKYLDARAAQDFVQWL[Met(O2)]DT-NH2; N-terminus assumed)
